Test results as given in patent US9187449B2, “Compounds with increased specificity for the treatment of glioma” (University of Tennessee Research Foundation, priority 2013, dated 2015).
Counter-ions that a name gives are not always drawn. Like-named read-outs stand apart in the source and are kept apart here.

Columns and labels:
Format in all cases: cell-based
T98G = experiment: MTT cell viability assay, T98G glioma cells; settings: human glioma cell line T98G, five days exposure, mean of triplicate experiments, read-out: Mean IC50 ± SD, T98G
Excerpt: (§1) The synthesized THI analogs were screened for their efficacy against established human glioma cell lines using the MTT colorimetric assay. This assay measures cell viability by quantitating purple formazan crystal formation caused by the reduction of tetrazolium salts in metabolically active cells. The inventors performed a series of experiments to determine the best concentration range for each compound to generate a half-maximal inhibitory concentration (IC50). The IC50 value for each compound represents the mean of triplicate experiments. Primary astrocytes established from the cortices of normal mouse pups were used as the model system to represent the degree of toxicity that would be expected in normal astrocytes in the human brain. The glioma cells and normal astrocytes were exposed to escalating concentrations of each THI compound for five days and then subjected to the MTT assay. Cell viability data at each concentration was used to calculate IC50 values.

U87 = experiment: MTT cell viability assay, U87 glioma cells; settings: human glioma cell line U87, five days exposure, mean of triplicate experiments, read-out: Mean IC50 ± SD, U87
Excerpt: as §1

LN18 = experiment: MTT cell viability assay, LN18 glioma cells; settings: human glioma cell line LN18, five days exposure, mean of triplicate experiments, read-out: Mean IC50 ± SD, LN18
Excerpt: as §1

A172 = experiment: MTT cell viability assay, A172 glioma cells; settings: human glioma cell line A172, five days exposure, mean of triplicate experiments, read-out: Mean IC50 ± SD, A172
Excerpt: as §1

Normal astrocytes = experiment: MTT cell viability assay, normal primary astrocytes (toxicity model); settings: primary astrocyte cultures from normal mouse brains, five days exposure, mean of triplicate experiments, read-out: Mean IC50 ± SD, Normal astrocytes
Excerpt: as §1

SMILES	IC50 (T98G) [µM]	IC50 (U87) [µM]	IC50 (LN18) [µM]	IC50 (A172) [µM]	IC50 (Normal astrocytes) [µM]	IC50 (T98G; 120 h) [µM]	IC50 (U87; U-87 MG, 120 h) [µM]	IC50 (LN18; LN-18, 120 h) [µM]	IC50 (A172; A 172, 120 h) [µM]	IC50 (Normal astrocytes; 120 h) [µM]
COc1cc2c(cc1OC)C(Cc1ccc(-c3cnccc3OC)cc1)NCC2 (stereo not shown) [EDL-291 (9)]	59.5 ± 7.61	66.5 ± 1.12	37	41.2	51.1 ± 1.38					
COc1ccncc1-c1ccc(CC2NCCc3c(OC)ccc(OC)c32)cc1 (stereo not shown) [EDL-358 (11), 5,8-dimethoxy-1-(4-(4-methoxypyridin-3-yl)benzyl)-1,2,3,4-tetrahydroisoquinoline dihydrochloride]						13.8	16.2	13.7	8.25	24.6 ± 0.79
COc1ccncc1-c1ccc(CCC2NCCc3c(OC)ccc(OC)c32)cc1 (stereo not shown) [EDL-360 (12), 5,8-dimethoxy-1-(4-(4-methoxypyridin-3-yl)phenethyl)-1,2,3,4-tetrahydroisoquinoline dihydrochloride]						10.4	8.4	5.42	5.6	19.7 ± 2.44
COc1ccncc1-c1ccc(CCCC2NCCc3c(OC)ccc(OC)c32)cc1 (stereo not shown) [EDL-361 (13), 5,8-dimethoxy-1-(3-(4-(4-methoxypyridin-3-yl)phenyl)propyl)-1,2,3,4-tetrahydroisoquinoline dihydrochloride]						14.8 ± 0.68	10.5	11.7 ± 0.17	15.2 ± 0.98	11.9 ± 0.56
Cn1nnc2c(C(N)=O)ncn2c1=O [TMZ, reference compound]	571 ± 50.4	49.1 ± 5.15	392 ± 77.2	65.3 ± 12	> 1000					
